{"source": "patent US20220304945A1", "about": "“METHODS OF TREATING METABOLIC SYNDROME RELATED CONDITIONS USING RETINOIC ACID RECEPTOR AGONISTS” (Cornell University, priority 2014, published 2022)", "assay_type_in_all_cases": "in vivo, mouse", "key": {"[1]": {"test_system": "α-SMA", "test": "α-SMA immunofluorescence of kidney, HF-fed mice", "conditions": "HF diet mice 4 months", "text": "Mice, diet, and drug treatment. WT male C57/BL6 male mice were maintained on either a standard laboratory chow-fed diet (CFD) with 13% kcal fat, (diet #5053, Lab Diet, Inc, St. Louis, Mo.) or a high fat, western style diet (HFD) with 60% kcals from fat, (diet #58126, Lab Diet, Inc., St. Louis, Mo.) for 4 months. One month after the start of the high fat diet treatment, the high fat diet group was further split into 2 groups for 3 months: i) high fat diet and the drinking water containing 1% DMSO; ii) high fat diet and the drinking water containing 1.5 mg/100 ml AC261066, a specific RARβ agonist. Then mice were sacrificed by cervical dislocation. Blood and various tissue samples were harvested.\nCombined oil red O and Immunofluorescence staining. Fresh mouse kidney samples were embedded in optimal cutting temperature (OCT) medium and immediately frozen to −70 centigrade. Cryosections were then fixed in 4% formaldehyde for 1 hr at room temp. Slides were then rinsed three times in deionized water (dH2O) for 30 s, followed by treatment with 0.5% Triton X-100 in PBS for 5 min. Sections were then washed three times with PBS for 5 min. Samples were with incubated 2% bovine serum albumin (BSA) for 30 min at room temperature to block for unspecific antibody binding. […]"}, "[2]": {"test_system": "HF-fed C57/BL6 mice", "test": "HF-fed mice treated 3 months: body weight, GTT, fasting glucose (Example 22)", "protocol": "METHODS. Preparation of RARβ agonists solution. AC261066 and AC55649 were dissolved in dimethyl sulfoxide (DMSO) at the concentration of 3.0 mg/ml and diluted in the drinking water for mice to the final concentration of 3.0-mg/100 ml. Mice, diet, and drug treatments. Wt male C57/BL6 male mice were maintained on either a standard laboratory chow-fed diet (Con) with 13% kcal fat, (diet #5053, Lab Diet, Inc, St. Louis, Mo., [n=4]) or a high fat, western style diet (HFD) with 45% kcals from fat, (diet #58126, Lab Diet, Inc., St. Louis, Mo.) for 3 months. Two weeks after the start of the HFD treatment, the HFD group was further split into 3 groups for 3 months: i) HFD and drinking water containing 1% DMSO (n=5); ii) high fat diet (HFD) and drinking water containing 3.0 mg/100 ml AC261066, a specific RARβ agonist (n=5) or iii) HFD and drinking water containing 3.0 mg/100 ml AC55649, a specific RARβ agonist (n=4). After 3 months the mice were tested for glucose intolerance with an intra-peritoneal glucose tolerance test (GTT). Mice were then sacrificed by cervical dislocation. Blood and various tissue samples were harvested.\nGlucose Tolerance Test (GTT). Glucose tolerance was performed using an intraperitoneal glucose tolerance test (GTT). Mice were fasted overnight (˜16 hrs) followed by intra-peritoneal injections (n=3-5 per group) of 50% glucose in PBS at 2.0 g of glucose/kg of body weight. Tail vein blood was collected at 15, 30, 45, 60, and 120 minutes post-injection for glucose measurements using a FreeStyle Lite Blood Glucose Monitoring System (Abbott Diabetes Care, Inc. Alameda, Calif.). Random and fasting blood glucose measurements were taken from tail veins of 4 mice per group at 2-3 random time points daily or just prior to GTT. Means are expressed as ±standard error of the mean (S.E.M) and P-values were calculated using one-way analysis of variance followed by Bonferroni post-hoc analysis. Grubbs' maximum normal residual test was used for detection of one or more outliers."}, "[3]": {"test_system": "HF-fed and genetically obese mice", "test": "Tissue triglyceride analysis and H and E staining of liver, pancreas, kidney, muscle, adipose tissue", "text": "Mice, diet, and drug treatment. Dietary Obesity Studies: Wild type (wt) male C57/BL6 male mice were maintained on either a standard laboratory chow-fed diet (Con) with 13% kcal fat, (diet #5053, Lab Diet, Inc, St. Louis, Mo.) or a high fat, western style diet (HFD) with 45% kcals from fat, (diet #58126, Lab Diet, Inc., St. Louis, Mo.) for 4 months. One month after the start of the HFD treatment, the Con and HFD groups werefurther split into 3 additional groups for […] to: i) remain on either Con or HFD and the drinking water containing 1% DMSO; ii) Con or HFD and drinking water containing 3.0 mg/100 ml AC261066, a specific RARβ agonist in 1% DMSO, or iii) Con or HFD and drinking water containing 3.0 mg/100 ml of AC55649, another specific RARβ agonist in 1% DMSO. All mice remained on their diets for 4 months. […]\nTissue Triglyceride Analysis: Total tissue lipids were extracted from using the Folch method. […] Tissue triglycerides were determined enzymatically using Triglycerides Reagent kit (Invitrogen, Life Technologies, Carlsbad, Calif., USA) according to the manufacture's protocol. Tissue triglycerides were normalized to tissue protein concentrations and reported as mean±standard error of the mean (S.E.M) and P-values were calculated using one-way analysis of variance followed by Bonferroni multiple comparison test post-hoc analysis."}}, "note": "“Also recorded” adds a separate entry of the source.", "data": [{"molecule": "CCCCOCCOc1nc(-c2ccc(C(=O)O)c(F)c2)sc1C", "note": "[AC261066]", "values": [{"measurement": "α-SMA positive areas in kidney", "setting": "[1]", "value": "diminished; also recorded: not observed"}, {"measurement": "glucose tolerance and area under the curve glucose", "setting": "[2]", "value": "improved"}, {"measurement": "overnight fasting glucose levels", "setting": "[2]", "value": "significant reductions"}, {"measurement": "decrease in body weights compared to HF-fed mice", "setting": "[2]; 3.0 mg/100 ml drinking water", "value": "~10", "unit": "%"}, {"measurement": "accumulation of liver, pancreas, kidney, muscle and adipose triglycerides", "setting": "[3]", "value": "reduces"}]}]}
